Biological target: T1, TbCaV (TbCav; FS179; TbCaCh) (Trypanosoma brucei, UniProt Q38BV7)
T1 construct: gene Tb10.70.4750; native full-length channel in intact T. brucei cells, 2693 aa, approx. 301 kDa, single subunit, untagged wild type
Test: Ca2+ entry into intact T. brucei, Cal-590 fluorescence
Assay type: cell-based
Conditions: wild-type T. brucei BSF (Figure 9A inset); 1.8 mM Ca2+ added after 100 μM EGTA, BAG buffer pH 7.0; whole-cell Ca2+ entry attributed to TbCaV, direct binding not shown

T1 sequence (Q38BV7 1-2693): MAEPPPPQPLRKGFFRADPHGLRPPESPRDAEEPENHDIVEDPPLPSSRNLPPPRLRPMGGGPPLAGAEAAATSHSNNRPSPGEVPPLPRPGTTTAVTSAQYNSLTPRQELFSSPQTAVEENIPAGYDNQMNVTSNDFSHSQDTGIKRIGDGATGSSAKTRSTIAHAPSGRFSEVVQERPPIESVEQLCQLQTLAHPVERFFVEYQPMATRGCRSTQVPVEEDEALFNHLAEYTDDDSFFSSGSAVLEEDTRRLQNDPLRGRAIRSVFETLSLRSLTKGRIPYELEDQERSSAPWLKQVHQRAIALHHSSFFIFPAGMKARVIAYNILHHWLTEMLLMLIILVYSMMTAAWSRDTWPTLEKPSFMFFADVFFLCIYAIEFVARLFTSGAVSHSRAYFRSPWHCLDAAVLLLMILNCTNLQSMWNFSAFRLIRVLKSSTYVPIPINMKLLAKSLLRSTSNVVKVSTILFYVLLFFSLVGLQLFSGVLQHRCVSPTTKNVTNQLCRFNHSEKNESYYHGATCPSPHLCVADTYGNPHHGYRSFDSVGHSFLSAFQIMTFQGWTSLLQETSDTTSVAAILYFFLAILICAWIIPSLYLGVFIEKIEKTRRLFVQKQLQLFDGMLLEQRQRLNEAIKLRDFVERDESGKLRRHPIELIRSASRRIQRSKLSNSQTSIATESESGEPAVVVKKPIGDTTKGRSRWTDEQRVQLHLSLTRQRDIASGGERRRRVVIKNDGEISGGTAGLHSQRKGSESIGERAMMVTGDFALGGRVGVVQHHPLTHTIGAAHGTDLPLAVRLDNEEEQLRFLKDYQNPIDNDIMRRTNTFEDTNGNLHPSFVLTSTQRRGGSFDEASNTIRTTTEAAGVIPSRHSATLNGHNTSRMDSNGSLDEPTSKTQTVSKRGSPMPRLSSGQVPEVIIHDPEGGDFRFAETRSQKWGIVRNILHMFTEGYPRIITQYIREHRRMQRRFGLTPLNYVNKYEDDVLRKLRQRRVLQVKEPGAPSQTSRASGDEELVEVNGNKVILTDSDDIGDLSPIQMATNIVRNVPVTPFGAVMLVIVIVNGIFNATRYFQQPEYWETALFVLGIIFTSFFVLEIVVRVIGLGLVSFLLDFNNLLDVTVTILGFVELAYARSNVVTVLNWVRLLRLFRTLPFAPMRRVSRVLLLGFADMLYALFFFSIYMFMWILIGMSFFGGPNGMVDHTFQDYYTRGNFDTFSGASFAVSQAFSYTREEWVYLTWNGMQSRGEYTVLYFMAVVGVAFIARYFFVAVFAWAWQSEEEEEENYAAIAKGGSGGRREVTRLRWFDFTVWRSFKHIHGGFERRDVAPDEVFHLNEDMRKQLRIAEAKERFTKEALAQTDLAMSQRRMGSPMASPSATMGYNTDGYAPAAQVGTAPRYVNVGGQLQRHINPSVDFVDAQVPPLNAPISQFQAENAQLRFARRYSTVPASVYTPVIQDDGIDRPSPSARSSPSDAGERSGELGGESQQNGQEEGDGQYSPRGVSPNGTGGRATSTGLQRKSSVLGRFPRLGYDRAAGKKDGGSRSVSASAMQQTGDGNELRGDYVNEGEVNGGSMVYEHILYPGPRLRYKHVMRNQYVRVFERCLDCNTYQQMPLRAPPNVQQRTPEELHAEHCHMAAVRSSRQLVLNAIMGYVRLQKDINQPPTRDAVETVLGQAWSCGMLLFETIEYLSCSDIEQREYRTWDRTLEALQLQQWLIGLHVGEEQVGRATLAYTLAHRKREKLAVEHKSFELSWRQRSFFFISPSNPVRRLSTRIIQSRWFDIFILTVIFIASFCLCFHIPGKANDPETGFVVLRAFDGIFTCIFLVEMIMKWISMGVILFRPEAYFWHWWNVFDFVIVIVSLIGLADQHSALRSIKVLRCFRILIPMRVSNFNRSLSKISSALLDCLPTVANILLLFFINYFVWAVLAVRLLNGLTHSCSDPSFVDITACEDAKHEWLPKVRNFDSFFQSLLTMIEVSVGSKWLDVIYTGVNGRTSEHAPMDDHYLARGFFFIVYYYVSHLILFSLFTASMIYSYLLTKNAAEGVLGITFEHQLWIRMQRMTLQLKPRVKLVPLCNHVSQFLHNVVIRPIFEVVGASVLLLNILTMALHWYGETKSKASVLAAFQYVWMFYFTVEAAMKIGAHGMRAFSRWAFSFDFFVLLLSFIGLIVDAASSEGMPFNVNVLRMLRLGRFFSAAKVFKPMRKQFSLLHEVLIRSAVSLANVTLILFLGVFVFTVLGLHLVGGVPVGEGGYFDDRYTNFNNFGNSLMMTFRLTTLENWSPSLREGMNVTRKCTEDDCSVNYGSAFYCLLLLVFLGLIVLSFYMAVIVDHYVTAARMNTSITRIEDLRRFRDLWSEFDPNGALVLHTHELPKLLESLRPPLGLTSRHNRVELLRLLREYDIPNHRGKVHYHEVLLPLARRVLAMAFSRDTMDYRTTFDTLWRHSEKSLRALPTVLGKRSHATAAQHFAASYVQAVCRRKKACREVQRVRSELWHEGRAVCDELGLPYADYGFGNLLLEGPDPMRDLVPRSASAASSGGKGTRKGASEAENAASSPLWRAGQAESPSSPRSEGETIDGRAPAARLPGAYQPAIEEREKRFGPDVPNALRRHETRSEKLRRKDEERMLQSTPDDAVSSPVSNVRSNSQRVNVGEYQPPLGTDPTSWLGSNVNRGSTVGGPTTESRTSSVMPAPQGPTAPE

Question: For CC(=O)Nc1ccc([N+](=O)[O-])c2nonc12 [NBD-A, N-(7-nitro-2,1,3-benzoxadiazol-4-yl) acetamide], which IC50 is on record?
Answer: Its IC50 is 1460 ± 30 nM.

From article PMC12172032, “Chemical and Genetic Validation of an Essential Calcium Entry Channel of Trypanosoma brucei as a Therapeutic Target” (ACS Infectious Diseases, 2025)
